{"source": "ChEMBL document CHEMBL1157744", "about": "“Small molecule antagonist of leukocyte function associated antigen-1 (LFA-1): structure-activity relationships leading to the identification of 6-((5S,9R)-9-(4-cyanophenyl)-3-(3,5-dichlorophenyl)-1-methyl-2,4-dioxo-1,3,7-triazaspiro[4.4]nonan-7-yl)nicotinic acid (BMS-688521)” (J Med Chem, 2010)", "key": {"in vivo [1]": {"test": "in vivo", "conditions": "dog, iv, 1 mg/kg"}, "hERG (KCNH2)": {"target": "hERG (KCNH2) (Homo sapiens, UniProt Q12809)", "sequence (Q12809 whole entry)": "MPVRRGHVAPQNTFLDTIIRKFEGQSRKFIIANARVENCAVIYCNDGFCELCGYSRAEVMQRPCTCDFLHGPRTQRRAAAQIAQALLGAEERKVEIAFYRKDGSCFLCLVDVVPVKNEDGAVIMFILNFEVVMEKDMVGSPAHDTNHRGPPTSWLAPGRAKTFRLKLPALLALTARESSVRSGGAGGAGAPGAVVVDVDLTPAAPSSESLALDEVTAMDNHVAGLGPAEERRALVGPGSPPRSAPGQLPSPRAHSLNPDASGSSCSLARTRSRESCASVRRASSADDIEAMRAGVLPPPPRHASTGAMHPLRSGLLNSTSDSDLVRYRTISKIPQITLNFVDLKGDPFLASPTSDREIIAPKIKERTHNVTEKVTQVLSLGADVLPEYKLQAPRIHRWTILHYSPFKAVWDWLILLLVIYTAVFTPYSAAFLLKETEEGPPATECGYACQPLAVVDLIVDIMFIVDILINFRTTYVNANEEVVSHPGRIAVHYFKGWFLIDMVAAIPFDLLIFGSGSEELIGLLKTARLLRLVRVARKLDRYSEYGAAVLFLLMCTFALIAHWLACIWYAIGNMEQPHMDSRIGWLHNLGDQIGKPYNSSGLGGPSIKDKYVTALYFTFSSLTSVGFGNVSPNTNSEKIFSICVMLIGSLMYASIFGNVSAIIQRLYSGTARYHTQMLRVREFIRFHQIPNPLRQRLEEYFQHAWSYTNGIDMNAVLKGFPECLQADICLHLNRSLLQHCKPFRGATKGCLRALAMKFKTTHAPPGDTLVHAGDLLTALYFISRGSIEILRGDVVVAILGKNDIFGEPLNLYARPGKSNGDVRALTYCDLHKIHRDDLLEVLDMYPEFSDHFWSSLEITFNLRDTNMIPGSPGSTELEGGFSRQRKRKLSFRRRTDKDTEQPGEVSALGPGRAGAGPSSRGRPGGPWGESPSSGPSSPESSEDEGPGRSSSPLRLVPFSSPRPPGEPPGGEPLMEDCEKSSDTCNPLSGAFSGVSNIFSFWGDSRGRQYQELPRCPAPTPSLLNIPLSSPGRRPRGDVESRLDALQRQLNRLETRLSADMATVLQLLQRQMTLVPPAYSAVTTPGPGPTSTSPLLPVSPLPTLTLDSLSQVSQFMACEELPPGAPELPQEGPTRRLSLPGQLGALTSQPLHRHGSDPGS", "test": "in vitro"}, "in vitro [2]": {"test": "in vitro", "conditions": "Purkinje fibers"}, "Mus musculus [3]": {"species": "Mus musculus", "conditions": "in vivo, po, 5 mg/kg"}, "in vivo [4]": {"test": "in vivo", "conditions": "dog, plasma, po, 5 mg/kg"}, "in vivo [5]": {"test": "in vivo", "conditions": "rat, plasma, po, 5 mg/kg"}, "Canis familiaris": {"species": "Canis familiaris", "conditions": "dog, in vivo, po, 5 mg/kg"}, "Mus musculus [6]": {"species": "Mus musculus", "conditions": "BALB/c, 1 mg/kg"}, "in vivo [7]": {"test": "in vivo", "conditions": "dog, iv, 1 mg/kg", "remark": "listed apart in the source"}, "in vivo [8]": {"test": "in vivo", "conditions": "mouse, po, 5 mg/kg"}, "in vivo [9]": {"test": "in vivo", "conditions": "rat, iv, 1 mg/kg"}, "[10]": {"target": "Integrin alpha-M (Homo sapiens) (UniProt P11215)", "conditions": "THP-1, 10 uM"}, "in vivo [11]": {"test": "in vivo", "conditions": "mouse, iv, 1 mg/kg"}, "Rattus norvegicus": {"species": "Rattus norvegicus", "conditions": "in vivo, po, 5 mg/kg"}, "in vivo [12]": {"test": "in vivo", "conditions": "dog, iv, 1 mg/kg", "remark": "listed apart in the source"}, "in vivo [13]": {"test": "in vivo", "conditions": "rat, iv, 1 mg/kg", "remark": "listed apart in the source"}, "in vivo [14]": {"test": "in vivo", "conditions": "rat, iv, 1 mg/kg", "remark": "listed apart in the source"}, "Mus musculus [15]": {"species": "Mus musculus", "conditions": "BALB/c, 3 to 10 mg/kg"}, "in vivo [16]": {"test": "in vivo", "conditions": "rat, po, 5 mg/kg"}, "[17]": {"target": "T1, Integrin alpha-2/beta-3 (Homo sapiens) (UniProt P05106+P17301)", "conditions": "30 uM"}, "in vivo [18]": {"test": "in vivo", "conditions": "dog, iv, 1 mg/kg", "remark": "listed apart in the source"}, "in vivo [19]": {"test": "in vivo", "conditions": "mouse, po, 5 mg/kg", "remark": "listed apart in the source"}, "in vivo [20]": {"test": "in vivo", "conditions": "mouse, plasma, po, 5 mg/kg"}, "in vivo [21]": {"test": "in vivo", "conditions": "dog, po, 5 mg/kg"}, "[22]": {"target": "T1, Integrin alpha-2/beta-3 (Homo sapiens)", "conditions": "30 uM", "remark": "listed apart in the source"}, "in vitro [23]": {"test": "in vitro", "conditions": "human, serum"}, "in vitro [24]": {"test": "in vitro", "conditions": "human, Caco-2"}, "in vivo [25]": {"test": "in vivo", "conditions": "mouse, iv, 1 mg/kg", "remark": "listed apart in the source"}, "in vivo [26]": {"test": "in vivo", "conditions": "rat, po, 5 mg/kg", "remark": "listed apart in the source"}, "in vivo [27]": {"test": "in vivo", "conditions": "dog, po, 5 mg/kg", "remark": "listed apart in the source"}, "in vivo [28]": {"test": "in vivo", "conditions": "mouse, iv, 1 mg/kg", "remark": "listed apart in the source"}, "in vivo [29]": {"test": "in vivo", "conditions": "rat, iv, 1 mg/kg", "remark": "listed apart in the source"}, "[30]": {"target": "Integrin alpha-4/beta-1 (Homo sapiens) (UniProt P05556+P13612)", "conditions": "Jurkat, 10 uM"}, "in vivo [31]": {"test": "in vivo", "conditions": "mouse, iv, 1 mg/kg", "remark": "listed apart in the source"}}, "note": "Activity calls are given as the source filed them. The calls are words filed in the database; no cut-off is given here.", "data": [{"compound": "CN1C(=O)N(c2cc(Cl)cc(Cl)c2)C(=O)[C@]12CN(c1ccc(C(=O)O)cn1)C[C@H]2c1ccc(C#N)cc1", "values": [{"measurement": "half-life", "setting": "in vivo [1]", "value": 4.7, "unit": "h"}, {"measurement": "inhibition at 30 µM", "setting": "hERG (KCNH2)", "value": 20, "unit": "%"}, {"measurement": "inhibition at 30 µM", "setting": "in vitro [2]", "value": "< 5", "unit": "%"}, {"measurement": "Tmax", "setting": "Mus musculus [3]", "value": 1, "unit": "h"}, {"measurement": "AUC", "setting": "in vivo [4]", "value": 102, "unit": "µM·h"}, {"measurement": "AUC", "setting": "in vivo [5]", "value": 13, "unit": "µM·h"}, {"measurement": "Tmax", "setting": "Canis familiaris", "value": 2.9, "unit": "h"}, {"measurement": "inhibition", "setting": "Mus musculus [6]", "value": "Active"}, {"measurement": "Vd", "setting": "in vivo [7]", "value": 0.2, "unit": "L/kg"}, {"measurement": "bioavailability", "setting": "in vivo [8]", "value": 50, "unit": "%"}, {"measurement": "half-life", "setting": "in vivo [9]", "value": 3.3, "unit": "h"}, {"measurement": "inhibition", "setting": "[10]", "value": 18, "unit": "%"}, {"measurement": "Vd", "setting": "in vivo [11]", "value": 5.1, "unit": "L/kg"}, {"measurement": "Tmax", "setting": "Rattus norvegicus", "value": 1.7, "unit": "h"}, {"measurement": "clearance", "setting": "in vivo [12]", "value": 0.5, "unit": "mL/min/kg"}, {"measurement": "MRT", "setting": "in vivo [13]", "value": 3.5, "unit": "h"}, {"measurement": "Vd", "setting": "in vivo [14]", "value": 2.3, "unit": "L/kg"}, {"measurement": "inhibition", "setting": "Mus musculus [15]", "value": "Dose-dependent effect"}, {"measurement": "bioavailability", "setting": "in vivo [16]", "value": 82, "unit": "%"}, {"measurement": "inhibition", "setting": "[17]", "value": 0, "unit": "%"}, {"measurement": "MRT", "setting": "in vivo [18]", "value": 6.9, "unit": "h"}, {"measurement": "Cmax", "setting": "in vivo [19]", "value": 320, "unit": "nM"}, {"measurement": "AUC", "setting": "in vivo [20]", "value": 1.5, "unit": "µM·h"}, {"measurement": "Cmax", "setting": "in vivo [21]", "value": 22000, "unit": "nM"}, {"measurement": "inhibition", "setting": "[22]", "value": 0, "unit": "%"}, {"measurement": "fraction unbound", "setting": "in vitro [23]", "value": 0.05}, {"measurement": "Papp A→B", "setting": "in vitro [24]", "value": 14.8, "unit": "×10⁻⁶ cm/s"}, {"measurement": "clearance", "setting": "in vivo [25]", "value": 50, "unit": "mL/min/kg"}, {"measurement": "Cmax", "setting": "in vivo [26]", "value": 2300, "unit": "nM"}, {"measurement": "bioavailability", "setting": "in vivo [27]", "value": 48, "unit": "%"}, {"measurement": "half-life", "setting": "in vivo [28]", "value": 1.6, "unit": "h"}, {"measurement": "clearance", "setting": "in vivo [29]", "value": 11, "unit": "mL/min/kg"}, {"measurement": "inhibition", "setting": "[30]", "value": 0, "unit": "%"}, {"measurement": "MRT", "setting": "in vivo [31]", "value": 1.7, "unit": "h"}]}]}
